Data reported in article PMC10587159, “Biosynthesis and engineering of the nonribosomal peptides with a C-terminal putrescine” (Nature Communications, 2023).
Non-standard residues stand in square brackets, D forms with d. Residues, ends and D or L forms follow the SMILES beside them. *: point of attachment. Lauroyl = CCCCCCCCCCCC(=O)*; NH(CH2)4NH2 = NCCCCN*

Columns and labels:
[1] = tested on: human acute lymphoblastic leukemia cells K562; experiment: cells; type: cell-based; details: 24 h
Procedure, shortened: (§1)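 Cells were exposed to compounds and viability was then quantified by MTT assay, per an earlier published method. Panel included leukemia Kasumi, hepatoma HepG-2, gastric SGC-7901 and normal lung epithelial 2B cells.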

[2] = tested on: human breast adenocarcinoma cells MDA-MB-231; experiment: cells; type: cell-based; details: 24 h
Procedure, shortened: (§2)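 Cytotoxicity in Kasumi, HepG-2, SGC-7901 and normal lung epithelial 2B cells, among other human tumour lines, was measured by MTT assay.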

[3] = tested on: human gastric cancer cell SGC-7901; experiment: cells; type: cell-based; details: 24 h
Procedure, shortened: (§3)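 MTT read-out of viability; cancer lines plus normal 2B epithelial cells. Lines authenticated by morphology, gene/protein expression.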

[4] = tested on: human breast adenocarcinoma cells MCF7; experiment: cells; type: cell-based; details: 24 h
Procedure, shortened: as §1

[5] = tested on: human lung epithelial normal cell 2B; experiment: cells; type: cell-based; details: 24 h
Procedure, shortened: as §3

[6] = tested on: human hepatoma cell HepG-2; experiment: cells; type: cell-based; details: 24 h
Procedure, shortened: as §3

[7] = tested on: human colon cancer cell HCT-116; experiment: cells; type: cell-based; details: 24 h
Procedure, shortened: as §2

[8] = tested on: human lung adenocarcinoma cell A549; experiment: MTT cytotoxicity assay, A549; type: cell-based; details: 24 h
Procedure, shortened: as §2

[9] = tested on: S. brevitalea DSM 7029 wild type; experiment: Biofilm formation of DSM 7029 wild type with compounds (crystal violet); type: cell-based, Schlegelella brevitalea DSM 7029
Procedure, shortened: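 CYMG medium inoculated 1:100 from overnight culture with compounds at 0.1 μg/μL; OD600 read hourly for 42 h with shaking. Biofilm quantified at 18 h and 36 h by 0.1% crystal violet staining, 95% ethanol elution, OD600. Pigment secretion measured as OD600 of cell-free supernatant.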

HepG2 cells = experiment: Cell numbers of HepG2 after compound treatment; type: cell-based, human; details: HepG2, 1.5 × 10^5 cells/well plated, compound 5 μg/mL, 3 h; mean of n = 3
Protocol: Comparing the concentration of compounds (7, 10, 10a) in extracellular and intracellular after the HepG2 cell line dealt with compounds. HepG2 cells were plated in six-well plates at a density of 1.5 × 10^5 cells/well and grew overnight. After cell treated with compounds (5 μg/mL) for 3 h, the compounds were extracted with MeOH for cells culture medium and cells separately as followed the reported method. The compounds were quantified by LC‒MS (5%‒95% ACN in 15 min). The cell numbers of HepG2 with the compounds treatments was determined. […]
To determine whether the difference in bioactivity of products (with or without Put moiety) is due to variations in cellular uptake, we treated hepatoma cell line HepG2 with compounds 7 (C12 acyl), 10 (C14 acyl), and 10a (C14 acyl and without Put) (Supplementary Fig. 33c). The cells were treated for 3 h, and then culture medium and cells were extracted separately. LC-MS was used to detect and quantify the compounds.
At lower concentrations (5000 ng/mL, and 10,000 ng in total for each group), and […]
may be contributing to the differences in antitumor activity (Supplementary Fig. 33b).
This could be due to differences in the speed of cellu lar uptake or differences in drug metabolism rate, requiring further experimental investigation.

native host DSM 7029 = experiment: Inhibition zone test on the native host DSM 7029; type: cell-based, Schlegelella brevitalea DSM 7029; details: same method as for the seven tested strains
Description: The two human acute lymphoblastic leukemia cells K562 and Kasumi, two human breast adenocarcinoma cells MCF7 and MDA-MB-231, human hepatoma cell HepG-2, human lung adenocarcinoma cell A549, human gastric cancer cell SGC-7901, human colon cancer cell HCT-116, human ovarian cancer cell line SKOV3, or human lung epithelial normal cell 2B were obtained from Beyotime Biotechnology and utilized to test the cytotoxicity of compounds by MTT assays as previous study. The anti-inflammatory effect of the compounds was detected by the influence on the increase in the level of nitric oxide caused by lipopolysaccharide (LPS) based on the classic Griess method. RAW 264.7 cells (Shanghai Institutes for Biological Science) were seeded in 96-well plates and incubated for 24 h. Then, cells were treated with compounds 29, 29a, 31, and 31a (0-80 μM) for 30 min, followed by co-treatment with LPS ([…]) for another 24 h. The Nitric Oxide assay kit with Griess reagents (Beyotime, Lot: S0021, Shanghai, China) was used to examine cellular supernatant nitrite accumulation, which represents cellular NO levels. The OD value of 540 nm absorbance was detected with a microplate reader. Their authentication in the laboratory was performed regularly based on morphology and gene/protein expression. […]

[10] = relative to wild type treated with H2O = 100%, crystal violet 0.1%, OD600, mean of n = 3

`CCCCCCCCCCCC(=O)N[C@H](CCSC)C(=O)N[C@H](CC(N)=O)C(=O)N1CCC[C@H]1C(=O)N[C@H](C(=O)N[C@H](Cc1ccccc1)C(=O)N1CCC[C@H]1C(=O)N[C@@H](Cc1c[nH]c2ccccc12)C(=O)N[C@@H](C(=O)N[C@@H](C)C(=O)N[C@H](C)C(=O)N[C@@H](CO)C(=O)N[C@@H](C)C(=O)NCCCCN)C(C)C)C(C)C` [Compound 7, Glidonin G] (Lauroyl-[dM][dN]PV[dF]PW[dV]A[dA]SA-{NH(CH2)4NH2}) was tested, and the IC50 [1] was 13.5 ± 4.44 µM, the IC50 [2] was 4.76 ± 0.79 µM and the IC50 [3] was > 20 µM. The IC50 [4] was > 20 µM, the IC50 [5] was 11.7 ± 1.5 µM and the IC50 [6] was 8.3 ± 0.57 µM. For the same molecule, the IC50 [7] was > 20 µM, the IC50 [8] was 7.64 ± 1.11 µM and the “effect on biofilm formation of DSM 7029 wild type in words” value ([9]; crystal violet staining) was “increased biofilm formation”. The “biofilm formation 18 h, Average” value [9, 10] was 152.732%, the “biofilm formation 36 h, Average” value [9, 10] was 138.926% and the “The cell numbers, Average” value (HepG2 cells) was 1323333. For the same molecule, the “inhibition of native host DSM 7029, inhibition zone method” value (native host DSM 7029) was “no inhibition”.
